Measured values from article PMC8388760, “Novel Bifunctional Acylase from Actinoplanes utahensis: A Versatile Enzyme to Synthesize Antimicrobial Compounds and Use in Quorum Quenching Processes” (Antibiotics, 2021).

tested on: T1, AuAHLA; test: hydrolysis, o-phthalaldehyde fluorometric assay of released primary amine; type: biochemical, Actinoplanes utahensis; settings: 0.2 M potassium phosphate pH 8.0, 45 °C
T1 construct: gene ahla; full ORF of 808 residues expressed untagged in Rhodococcus sp; T104, secreted; signal peptide of 34-35 aa removed
From the text: hydrolysis, o-phthalaldehyde fluorometric assay of released primary amine on AuAHLA

Structure (SMILES) | Km [µM]
CC1(C)S[C@@H]2[C@H](NC(=O)Cc3ccccc3)C(=O)N2[C@H]1C(=O)O [Penicillin G] | 1210 ± 300
CCCCCCCC(=O)N[C@@H]1C(=O)N2[C@@H]1SC(C)(C)[C@@H]2C(=O)O [Penicillin K] | 675 ± 190
CC1(C)S[C@@H]2[C@H](NC(=O)COc3ccccc3)C(=O)N2[C@H]1C(=O)O [Penicillin V] | 472 ± 50
CCCCCC(=O)N[C@@H]1C(=O)N2[C@@H]1SC(C)(C)[C@@H]2C(=O)O [Penicillin dihidroF] | 199 ± 20

same assay, conditions: 0.2 M potassium phosphate pH 8.0, 45 °C, 20% (v/v) DMSO

Structure (SMILES) | Km [µM]
CCCCCC(=O)CC(=O)N[C@H]1CCOC1=O [3-oxo-C8-HSL, N-(3-oxooctanoyl)-L-homoserine lactone] | 1040 ± 420
CCCCCCCC(=O)CC(=O)N[C@H]1CCOC1=O [3-oxo-C10-HSL, N-(3-oxodecanoyl)-L-homoserine lactone] | 238 ± 86
CCCCCCCCCC(=O)CC(=O)N[C@H]1CCOC1=O [3-oxo-C12-HSL, N-(3-oxododecanoyl)-L-homoserine lactone] | 92 ± 21
CCCCCC(=O)N[C@H]1CCOC1=O [C6-HSL, N-hexanoyl-L-homoserine lactone] | 2250 ± 500
CCCCCCCC(=O)N[C@H]1CCOC1=O [C8-HSL, N-octanoyl-L-homoserine lactone] | 860 ± 150
CCCCCCCCCC(=O)N[C@H]1CCOC1=O [C10-HSL, N-decanoyl-L-homoserine lactone] | 84 ± 21
CCCCCCCCCCCC(=O)N[C@H]1CCOC1=O [C12-HSL, N-dodecanoyl-L-homoserine lactone] | 8 ± 2
